# Read-outs that look alike come from different tables or passages of the source.
# Tests used:
# [1] = test system: M. tuberculosis H37Rv; test: MIC, agar (7H11) dilution method; assay type: cell-based; details: Mycobacterium tuberculosis, H37RV
# [2] = test system: M. tuberculosis Kurono; test: MIC, agar (7H11) dilution method; assay type: cell-based; details: Mycobacterium tuberculosis, read-out: Minimum inhibitory concentrations (MIC)
# [3] = test system: M. bovis BCG Tokyo; test: microbe, parasite or virus in culture; assay type: cell-based; details: Mycobacterium tuberculosis variant bovis BCG, BCG, read-out: Minimum inhibitory concentrations (MIC)
# [4] = test system: M. avium Flamingo; test: MIC, agar (7H11) dilution method; assay type: cell-based; details: Mycobacterium avium, read-out: Minimum inhibitory concentrations (MIC)
# [5] = test system: M. intracellularae ATCC 15984; test: MIC, agar (7H11) dilution method; assay type: cell-based; details: read-out: Minimum inhibitory concentrations (MIC)
# [6] = test system: M. kansasii NIHJ1619; test: MIC, agar (7H11) dilution method; assay type: cell-based; details: Mycobacterium kansasii, read-out: Minimum inhibitory concentrations (MIC)
# [7] = test system: M. aurum; test: MIC, agar (7H11) dilution method; assay type: cell-based; details: Mycolicibacterium aurum, read-out: Minimum inhibitory concentrations (MIC)
# [8] = test system: M. fortuitum NIHJ1615; test: MIC, agar (7H11) dilution method; assay type: cell-based; details: Mycolicibacterium fortuitum, read-out: Minimum inhibitory concentrations (MIC)
# [9] = test system: M. smegmatis Takeo; test: MIC, agar (7H11) dilution method; assay type: cell-based; details: Mycolicibacterium smegmatis, read-out: Minimum inhibitory concentrations (MIC)
# [10] = target: MenA (Mycobacterium tuberculosis, UniProt P9WIP3); test: In vitro assay against MenA (membrane fractions); assay type: biochemical; details: membrane fractions from M. tuberculosis; 5 μM farnesyl diphosphate, 50 μM dihydroxynaphthoic acid, pH 8.5; read-out: IC50 (μmol) MenA
# [11] = test system: M. tuberculosis H37Rv; test: MIC, colorimetric microtiter plate method with Alamar blue; assay type: cell-based; details: Mycobacterium tuberculosis, read-out: MIC (μg/mL) M. tuberculosis
# Procedure: Activity Against M. Tuberculosis
# The minimum inhibitory concentration (MIC) of compounds were determined against H37Rv by a colorimetric microtiter plate based method with Alamar blue.
# [12] = test system: S. aureus ATCC 29213; test: MIC, other bacteria (Table 3); assay type: cell-based; details: Staphylococcus aureus, ATCC29213, inoculum size 10^6 CFU/ml, read-out: MIC
# [13] = test system: S. aureus ATCC 43300 (MRSA); test: MIC, other bacteria (Table 3); assay type: cell-based; details: Staphylococcus aureus, inoculum size 10^6 CFU/ml, read-out: MIC
# [14] = test system: VRSA 2441-T0041; test: MIC, other bacteria (Table 3); assay type: cell-based, S. aureus; details: Staphylococcus aureus; VRSA 2441-T0041, low level VCM-resistant; inoculum size 10^6 CFU/ml; read-out: MIC
# [15] = test system: MRSA 2441-05104; test: MIC, other bacteria (Table 3); assay type: cell-based, S. aureus; details: Staphylococcus aureus, inoculum size 10^6 CFU/ml, read-out: MIC
# [16] = test system: MRSA 2441-05112; test: MIC, other bacteria (Table 3); assay type: cell-based, S. aureus; details: Staphylococcus aureus, inoculum size 10^6 CFU/ml, read-out: MIC
# [17] = test system: MRSA 2441-05129; test: MIC, other bacteria (Table 3); assay type: cell-based, S. aureus; details: Staphylococcus aureus, inoculum size 10^6 CFU/ml, read-out: MIC
# [18] = test system: MRSA 2441-05223; test: MIC, other bacteria (Table 3); assay type: cell-based, S. aureus; details: Staphylococcus aureus, inoculum size 10^6 CFU/ml, read-out: MIC
# [19] = test system: MRSA 2441-05254; test: MIC, other bacteria (Table 3); assay type: cell-based, S. aureus; details: Staphylococcus aureus, inoculum size 10^6 CFU/ml, read-out: MIC
# [20] = test system: MRSA 2441-05262; test: MIC, other bacteria (Table 3); assay type: cell-based, S. aureus; details: Staphylococcus aureus, inoculum size 10^6 CFU/ml, read-out: MIC
# [21] = test system: S. epidermidis ATCC 12228; test: MIC, other bacteria (Table 3); assay type: cell-based; details: Staphylococcus epidermidis, ATCC12228, inoculum size 10^6 CFU/ml, read-out: MIC
# [22] = test system: MRSE 2442-05030; test: MIC, other bacteria (Table 3); assay type: cell-based, S. epidermidis; details: Staphylococcus epidermidis, inoculum size 10^6 CFU/ml, read-out: MIC
# [23] = test system: MRSE 2442-05047; test: MIC, other bacteria (Table 3); assay type: cell-based, S. epidermidis; details: Staphylococcus epidermidis, inoculum size 10^6 CFU/ml, read-out: MIC
# [24] = test system: MRSE 2442-05053; test: MIC, other bacteria (Table 3); assay type: cell-based, S. epidermidis; details: Staphylococcus epidermidis, inoculum size 10^6 CFU/ml, read-out: MIC
# [25] = test system: MRSE 2442-05060; test: MIC, other bacteria (Table 3); assay type: cell-based, S. epidermidis; details: Staphylococcus epidermidis, inoculum size 10^6 CFU/ml, read-out: MIC
# [26] = test system: MRSE 2442-05110; test: MIC, other bacteria (Table 3); assay type: cell-based, S. epidermidis; details: Staphylococcus epidermidis, inoculum size 10^6 CFU/ml, read-out: MIC
# [27] = test system: MRSE 2442-05118; test: MIC, other bacteria (Table 3); assay type: cell-based, S. epidermidis; details: Staphylococcus epidermidis, inoculum size 10^6 CFU/ml, read-out: MIC
# [28] = test system: E. faecalis ATCC 29212; test: MIC, other bacteria (Table 3); assay type: cell-based; details: Enterococcus faecalis, ATCC29212, inoculum size 10^6 CFU/ml, read-out: MIC
# [29] = test system: E. faecalis ATCC 51299 (VRE); test: MIC, other bacteria (Table 3); assay type: cell-based; details: Enterococcus faecalis, low level VCM-resistant, Van B, inoculum size 10^6 CFU/ml, read-out: MIC
# [30] = test system: E. faecalis NCTC 12201 (VRE); test: MIC, other bacteria (Table 3); assay type: cell-based; details: Enterococcus faecalis, high level VCM-resistant, Van A, inoculum size 10^6 CFU/ml, read-out: MIC
# [31] = test system: E. faecium ATCC 49224; test: MIC, other bacteria (Table 3); assay type: cell-based; details: Enterococcus faecium, ATCC49224; E. faecium ATCC 49224, GM-resistant; inoculum size 10^6 CFU/ml; read-out: MIC
# [32] = test system: E. faecium NCTC 12203 (VRE); test: MIC, other bacteria (Table 3); assay type: cell-based; details: Enterococcus faecium, high level VCM-resistant, Van A, inoculum size 10^6 CFU/ml, read-out: MIC
# [33] = test system: E. coli ATCC 25922; test: MIC, other bacteria (Table 3); assay type: cell-based; details: Escherichia coli, ATCC25922, inoculum size 10^6 CFU/ml, read-out: MIC
# [34] = test system: K. pneumoniae ATCC 27736; test: MIC, other bacteria (Table 3); assay type: cell-based; details: Klebsiella pneumoniae, ATCC27736, inoculum size 10^6 CFU/ml, read-out: MIC
# [35] = test system: P. mirabilis ATCC 4630; test: MIC, other bacteria (Table 3); assay type: cell-based; details: Proteus mirabilis, ATCC4630, inoculum size 10^6 CFU/ml, read-out: MIC
# [36] = test system: S. marsascens ATCC 14756; test: MIC, other bacteria (Table 3); assay type: cell-based; details: inoculum size 10^6 CFU/ml, read-out: MIC
# [37] = test system: P. aeruginosa ATCC 27853; test: MIC, other bacteria (Table 3); assay type: cell-based; details: Pseudomonas aeruginosa, ATCC27853, inoculum size 10^6 CFU/ml, read-out: MIC
# Chain of MenA (P9WIP3 whole entry): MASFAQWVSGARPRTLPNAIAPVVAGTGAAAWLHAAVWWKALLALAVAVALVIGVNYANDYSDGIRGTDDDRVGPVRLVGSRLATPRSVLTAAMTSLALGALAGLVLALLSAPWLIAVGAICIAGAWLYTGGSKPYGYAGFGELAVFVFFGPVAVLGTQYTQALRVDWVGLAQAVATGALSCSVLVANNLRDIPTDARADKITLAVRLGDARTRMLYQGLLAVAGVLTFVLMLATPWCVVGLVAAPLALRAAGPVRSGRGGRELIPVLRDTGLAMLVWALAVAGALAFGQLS
structure (smiles),measurement,setting,value
"CO[C@H]1/C=C/O[C@@]2(C)Oc3c(C)c(O)c4c(O)c(c(/C=N/N5CCN(C)CC5)c(O)c4c3C2=O)NC(=O)/C(C)=C\C=C\[C@H](C)[C@H](O)[C@@H](C)[C@@H](O)[C@@H](C)[C@H](OC(C)=O)[C@@H]1C [RFP, Rifampicin, reference compound]",MIC,"[1]; M. tuberculosis H37Rv, table line r8 (2nd of 5 so labelled), read-out: Minimum inhibitory concentrations (MIC)",0.1 µg/mL
same,MIC,"[1]; M. tuberculosis H37Rv, table line r9 (3rd of 5 so labelled), read-out: Minimum inhibitory concentrations (MIC)",0.2 µg/mL
same,MIC,"[1]; M. tuberculosis H37Rv, table line r10 (4th of 5 so labelled), read-out: Minimum inhibitory concentrations (MIC)",> 25 µg/mL
same,MIC,"[1]; M. tuberculosis H37Rv, table line r11 (5th of 5 so labelled), read-out: Minimum inhibitory concentrations (MIC)",0.2 µg/mL
same,MIC,"[2]; M. tuberculosis Kurono, agar (7H11) dilution",0.1 µg/mL
same,MIC,[3],0.1 µg/mL
same,MIC,[4],3.13 µg/mL
same,MIC,[5],3.13 µg/mL
same,MIC,[6],3.13 µg/mL
same,MIC,[7],0.78 µg/mL
same,MIC,[8],> 25 µg/mL
same,MIC,[9],> 25 µg/mL
C=CCN(C)CCCCCCCCOc1ccc(C(O)c2ccc(Cl)cc2Cl)cc1 (stereo not drawn) [Cpd 8],IC50,[10],12 µM
same,MIC,[11],5 µg/mL
C=CCN(C)CCCCCCCCOc1ccc(C(=O)c2ccc(Cl)cc2)c(Cl)c1 [Cpd 9],IC50,[10],4 µM
same,MIC,[11],0.6 µg/mL
"C=CCN(C)CCCCCCCCOc1ccc(C(=O)c2ccc(Cl)cc2)cc1 [Cpd 5, (4-(8-(Allyl(methyl)amino)octyloxy)phenyl)(4-chlorophenyl)methanone]",IC50,[10],5 µM
same,MIC,[11],0.3 µg/mL
"C=CCN(C)CCCCCCCCOc1ccc(C(=O)c2ccc(Cl)cc2)c(O)c1 [Cpd #22, (4-(8-(allyl(methyl)amino)octyloxy)-2-hydroxyphenyl)(4-chlorophenyl)methanone]",MIC,"[1]; read-out: Minimum inhibitory concentrations (MIC), M. tuberculosis H37Rv, table line r7 (1st of 5 so labelled)",1.56 µg/mL
same,MIC,"[1]; read-out: Minimum inhibitory concentrations (MIC), M. tuberculosis H37Rv, table line r8 (2nd of 5 so labelled)",1.56 µg/mL
same,MIC,"[1]; read-out: Minimum inhibitory concentrations (MIC), M. tuberculosis H37Rv, table line r9 (3rd of 5 so labelled)",1.56 µg/mL
same,MIC,"[1]; read-out: Minimum inhibitory concentrations (MIC), M. tuberculosis H37Rv, table line r10 (4th of 5 so labelled)",1.56 µg/mL
same,MIC,"[1]; read-out: Minimum inhibitory concentrations (MIC), M. tuberculosis H37Rv, table line r11 (5th of 5 so labelled)",3.13 µg/mL
same,MIC,[2],1.56 µg/mL
same,MIC,[3],3.13 µg/mL
same,MIC,[4],6.25 µg/mL
same,MIC,[5],6.25 µg/mL
same,MIC,[6],6.25 µg/mL
same,MIC,[7],6.25 µg/mL
same,MIC,[8],12.5 µg/mL
same,MIC,[9],12.5 µg/mL
same,MIC,[12],25 µg/mL
same,MIC,[13],25 µg/mL
same,MIC,[14],25 µg/mL
same,MIC,[15],25 µg/mL
same,MIC,[16],25 µg/mL
same,MIC,[17],50 µg/mL
same,MIC,[18],25 µg/mL
same,MIC,[19],50 µg/mL
same,MIC,[20],25 µg/mL
same,MIC,[21],12.5 µg/mL
same,MIC,[22],12.5 µg/mL
same,MIC,[23],12.5 µg/mL
same,MIC,[24],12.5 µg/mL
same,MIC,[25],12.5 µg/mL
same,MIC,[26],12.5 µg/mL
same,MIC,[27],12.5 µg/mL
same,MIC,[28],12.5 µg/mL
same,MIC,[29],12.5 µg/mL
same,MIC,[30],12.5 µg/mL
same,MIC,[31],12.5 µg/mL
same,MIC,[32],6.25 µg/mL
same,MIC,[33],50 µg/mL
same,MIC,[34],> 100 µg/mL
same,MIC,[35],> 100 µg/mL
same,MIC,[36],> 100 µg/mL
same,MIC,[37],> 100 µg/mL
"C#CCN(C)CCCCCCCCOc1ccc(C(=O)c2ccc(Cl)cc2)c(Cl)c1 [Cpd 11, (2-Chloro-4-(8-(methyl(prop-2-ynyl)amino)octyloxy)phenyl)(4-chlorophenyl)methanone]",IC50,[10],15 µM
same,MIC,[11],12 µg/mL
C=CCN(C)CCCCCCCOc1ccc(C(O)c2ccc(Br)cc2)cc1 (stereo not drawn) [Cpd 3],IC50,[10],15 µM
same,MIC,[11],5 µg/mL
"C=CCN(C)CCCCCCCCOc1ccc(C(O)c2ccc(Cl)cc2)c(Cl)c1 (stereo not drawn) [Cpd 10, (4-(8-(allyl(methyl)amino)octyloxy)-2-chlorophenyl)(4-chlorophenyl)methanol]",IC50,[10],< 2.5 µM
same,MIC,[11],0.6 µg/mL

# — US8884061B2, “Compositions and methods of use of electron transport system inhibitors” (priority 2006, dated 2014)
